# Results as given in publication PMC12388496, “Discovery of (E)-1,3-Diphenyl-2-Propen-1-One Derivatives as Potent and Orally Active NLRP3 Inflammasome Inhibitors for Colitis” (Molecules, 2025).
# Key:
# [1] = system: IL-1β secretion in THP-1 cells (NLRP3 inflammasome); assay: Inhibition of IL-1β secretion in THP-1 cells; format: cell-based; conditions: Homo sapiens, three independent experiments
# Protocol: Through SAR analysis, we identified compound F14 as the target compound for further investigation. To further validate its activity, the half-inhibitory concentration (IC50) of compound F14 for IL-1β release was determined in the BMDM model. […] To more comprehensively assess the potential of compound F14, we further evaluated its inhibition of IL-1β in THP-1 cells.
# Figure 3 F14 inhibits the secretion of IL-1β. (A) Detection of F14 inhibition of IL-1 β secretion in BMDM cells; (B) Detection of F14 inhibition of IL-1 β secretion in THP-1 cells. IC50 calculation and dose-response curve fitting were performed using GraphPad Prism (8.0) software. All data were obtained from three independent experiments.
# [2] = MTT assay, HepaRG cytotoxicity; format: cell-based; conditions: human, HepaRG cells, n = 3
# Protocol: HepaRG cells in the logarithmic growth phase (10^5 cells/mL), inoculate them into a 96-well plate, and culture overnight in a 37 °C, 5% CO2 incubator. Add compounds at different concentrations and continue culturing for 24 h. Add 20 μL of MTT solution, incubate for 4 h, discard the supernatant, and add DMSO to dissolve.
# NLRC4 inflammasome = NLRC4 inflammasome activation induced by S.typhi in BMDMs; format: cell-based, mouse; conditions: F14 10 μM, LPS-primed BMDMs
# Text: The NLRP3 inflammasome can be activated by various stimuli, such as microbial toxins and urate crystals. This process plays a central role in the pathogenesis of many inflammatory diseases. To assess whether F14 exerts a broad-spectrum inhibitory effect on NLRP3 inflammasome activation, we used three different activators—ATP, MSU, and Nigericin to stimulate BMDMs. […] Among the inflammasome family, NLRC4 and AIM2 are also protein complexes involved in the innate immune response, playing key roles in inflammatory regulation during infection and tissue damage. Poly (dA:dT) was used to induce AIM2 activation, while S.typhi was employed to stimulate NLRC4 activation.
# The LPS concentration was 200 ng/mL to pretreat BMDM cells for 3 h, then F14 (10 μM) was added to treat the cells for 30 min, and then each inducer—Nigericin (10 μM, 0.5 h), ATP (2.5 mM, 0.5 h), MSU (150 μg/mL, 4 h), S.typhi (4 h), and poly-(dA:dT) (0.5 μg/mL, 4 h)—were added for stimulation. (A) F14 has a broad-spectrum inhibitory effect on NLRP3 inflammasome activation. (B) F14 has a specific inhibitory effect on NLRP3 inflammasome activation. Data are presented as the mean ± SEM (n = 3). *** p < 0.001 vs. the model group. NS, not significant.
# ASC = ASC spot immunofluorescence experiment in BMDM cells; format: cell-based, mouse; conditions: LPS and Nigericin, concentration-dependent
# Text: The formation of ASC oligomers is a key hallmark of inflammasome activation. ASC forms interactions with other ASC molecules through its pyrin domain (PYD), which leads to the aggregation of these molecules, resulting in the formation of a speck-like structure (ASC specks). This process involves not only the aggregation of proteins but also the assembly of a highly ordered structure in the cytoplasm. Inhibition of ASC oligomerization can effectively block NLRP3 inflammasome activation. […] Therefore, we hypothesize that F14 may inhibit caspase-1 activation by interfering with ASC oligomerization or ASC speck formation. To validate this hypothesis, we conducted immunofluorescence experiments in BMDM cells under inflammatory conditions.
# Add the BMDM cells into a 24-well plate with a cell density of 3 × 10^5 cells per well. Add LPS (200 ng/mL) to all wells except the blank wells to stimulate the cells for 3 h, then add the F14 to the experimental group and incubate for 1 h, followed by Nigericin stimulation for 30 min. Add 500 μL of FAA fixation solution to each well, incubate with 1% TritonX-100 solution for 15 min, then block with 5% BSA solution. Add an appropriate amount of primary antibody and incubate overnight, wash, then add the secondary antibody for incubation. […]
# [3] = system: DSS-induced acute colitis; assay: DSS-induced acute colitis in mice; format: in vivo, mouse; conditions: 10 and 20 mg/kg daily, gavage
# Protocol: To further validate the in vivo biological activity of compound F14, we used the DSS-induced mouse colitis model to assess its anti-inflammatory effects. The experimental design was as follows: mice were divided into the normal group, model group (DSS), positive control group (DSS + sulfasalazine), low-dose group (DSS + 10 mg/kg), and high-dose group (DSS + 20 mg/kg). Mice in the normal group were given regular water with no treatment; the positive control group received sulfasalazine as the positive drug at a daily dose of 200 mg/kg; the low-dose and high-dose groups were administered 10 mg/kg and 20 mg/kg of F14, respectively, each day. During the experiment, acute colitis in mice was induced by drinking water containing 3% DSS […]. The mice’s body weight changes, fecal blood presence, and disease activity index (DAI) were recorded daily. […] Goblet cells are a type of colon epithelial cell, and their primary function is to secrete mucus, which helps maintain the stability of the intestinal environment. During the pathological process of colitis, the number of goblet cells decreased, and their mucus-secreting function was impaired. In histological examinations, the number and secretion function of goblet cells are important indicators of colitis.
# Male C57BL/6 mice, 18–20 g, were purchased from Charles River (China). All experiments and animal care procedures were approved by the Animal Resource Center of Anhui Medical University by the National Institutes of Health Guide for the Care and Use of Laboratory Animals (20230875). This study used DSS induction to establish an acute colitis model in mice. Mice in the experimental group were given free access to a 3% DSS solution for 7 days to induce an intestinal inflammation phenotype. The positive control group (sulfasalazine, 200 mg/kg) and the treatment group were gavage administration daily, using a 0.5% carboxymethyl cellulose sodium (CMC-Na) solution as the drug vehicle. The normal control and model groups received an equal volume of blank CMC-Na solution. Daily monitoring of weight changes and clinical symptoms was performed during the experimental period, including fecal characteristics (formed/loose/watery stools) and the degree of rectal bleeding (occult blood/gross blood in feces). On day 10, at the end of the experiment, the colonic sections of the mice were carefully excised. The excised colon was examined, and the length of the colon was measured. Some colon tissues were fixed in 4% formaldehyde and used for HE staining and immunohistochemical analysis for subsequent evaluations.
compound,measurement,setting,value
"Cc1ccc(C(=O)/C=C/c2cccc(O)c2)c(C)c1 [Compound F14, (E)-1-(2,4-dimethylphenyl)-3-(3-hydroxyphenyl)propyl-2-en-1-one]",IC50,[1],880 nM
same,IC50 at 24 h,[2],> 50000 nM
same,activation of NLRC4 inflammasome,NLRC4 inflammasome,no effect
same,ASC speckles,ASC,significant reduction
same,colonic adhesion,[3]; DSS mice,effectively alleviated
same,goblet cells in colon tissue (histology),[3]; DSS mice,inhibits the reduction
same,disease activity index (DAI),[3]; vs model group (DSS),inhibits the increase
same,weight loss in mice,[3]; vs model group (DSS),significantly alleviates
